How the values were obtained:
S6K1 K516 acetylation = S6K1 K516 acetylation in serum-stimulated NIH 3T3 cells treated with signal transduction inhibitors (Ac-K516 immunoblot); assay type: cell-based; conditions: 50 nM Rapamycin, 20 μM LY294002 or 10 μM PD98059 30 minutes before serum stimulation, lysed after 1 hr
Procedure: In this study, NIN3T3 cells were starved and stimulated with serum for various period of time. Total cell lysates were separated by SDS-PAGE and immunoblotted with acetyl-K516 antibodies. In FIG. 10B, the effect of various cell signalling inhibitors on K516 acetylation is shown. In this study, NIH3T3 cells were starved and treated with 50 nM Rapamycin (mTor inhibitor), 20 μM LY294002 (phosphatidylinositol 3′-kinase inhibitor), 10 μM PD98059 (MAP kinase inhibitor) or vehicle alone thirty minutes before stimulation with serum. Then, cells were stimulated with serum for one hour and lysed. The supernatants of total lysates were separated by SDS-PAGE and Western blotted with acetyl-K516 antibodies. […] The wtS6K and K516R mutants were transiently expressed in Hek293 cells. Immunoprecipitated recombinant S6Ks and total cell lysates were resolved by gel electrophoresis and immunoblotted with antibodies specific for EE tag, pT412 and actin.
Furthermore, the effect of signal transduction inhibitors on K516 acetylation was studied in NIH 3T3 cell. In this experiment, cells were serum starved and treated with rapamycin, LY and PD for 30 minutes before serum stimulation. Cells were lysed 1 hr hour after stimulation and the lysates separated by SDS-PAGE and immunoblotted with Ac-K516, pT412 antibodies.

S6 kinases = test: S6 kinase acetylation in HEK 293 cells cotransfected with EE-tagged S6 kinases and p300 (anti-acetylated lysine immunoblot); assay type: cell-based; conditions: HEK 293 cells with overexpressed p300; TSA 660 nM for 12 hours
Procedure: In FIG. 2A, recombinant S6 kinases were acetylated in vitro using the purified acetyltransferase domain of p300 or full length PCAF and ^14C-labelled acetyl CoA. Proteins were resolved by SDS-PAGE and acetylated proteins were analysed by phosphorimaging (Bio-rad). In FIG. 2B, recombinant S6K2 or GST were subject to in vitro acetylation reactions with p300 and 14C AcCoA. Recombinant PKB/Akt, PKCa, PDK1 and PI3K (p85a/p110a) were purified using baculovirus expression system. In vitro acetylation assay was carried out as previously described. In FIG. 2D, HEK 293 cells were transfected with S6 kinases in the absence or presence of Gal4-p300 as shown. Cells were treated with medium containing either solvent control or TSA to a final concentration of 660 nM for twelve hours prior to harvesting. Recombinant S6 kinases were immunoprecipitated using the EE-antibody and acetylated S6 kinase was detected by western blotting with polyclonal acetylated lysine antibodies (Upstate). The level of immunoprecipitated S6K1 and S6K2 was analysed by reprobing the membranes with specific antibodies. The expression of Gal4-p300 was tested in total lysates using anti-Gal4 antibodies.
In order to test whether S6 kinase proteins are subject to acetylation within cells, HEK 293 cells were cotransfected with EE-tagged S6 kinases and p300. […]

S6K = S6K activity after deacetylase inhibition in a range of cell types (western blot, immune complex kinase assay); assay type: cell-based
Procedure: (§1) (A) The cell lines indicated (see text) were treated with TSA and nicotinamide for eight hours. Following lysis, proteins were resolved by SDS-PAGE and western blots were probed as labelled to evaluate S6K activation. (B) MKOC cells (see text) were treated as in (A) and analysed by western blotting. S6K1 was also immunoprecipitated from lysates and subjected to immune complex kinase assay.
(§2) Histone deacetylase inhibitors downregulate S6K activity in a range of different cell types. In order to test the model that S6K acetylation may be playing a role in its de-activation, the effect of TSA on S6K activity was analysed in a number of cell types, some of which contain mutations in the pathways leading to S6K activation, thus affording a genetic analysis of this phenomenon. […] PC-3 is a PTEN-null prostate cancer cell line in which basal PKB and S6K activation is high due to deregulation of PI3K signalling. […] The MKOC cell line was derived from a renal tumour removed from a Tsc2^−/− mouse. Since these cells lack Tsc2, S6K activity is uncoupled from both PKB and the tuberous sclerosis complex heterodimer. […] It should be noted that, although the same trend (reduced S6K phosphorylation and activity following treatment with deacetylase inhibitors) is seen in all the cell lines tested, the magnitude of this effect does vary. […]

4EBP1 (target of mTOR) = test: Phospho-4EBP1 blotting in MKOC cells; assay type: cell-based, mouse; conditions: TSA treatment
Procedure: as §1, §2

[1] = molecular target: T1, recombinant purified S6K1 (Homo sapiens, UniProt P23443); test: In vitro kinase assay with recombinant purified S6K in presence or absence of deacetylase inhibitors; assay type: biochemical; conditions: presence or absence of TSA and nicotinamide
T1 construct: made in house; host or cells: insect cells (baculovirus)
T1 sequence (P23443 whole entry): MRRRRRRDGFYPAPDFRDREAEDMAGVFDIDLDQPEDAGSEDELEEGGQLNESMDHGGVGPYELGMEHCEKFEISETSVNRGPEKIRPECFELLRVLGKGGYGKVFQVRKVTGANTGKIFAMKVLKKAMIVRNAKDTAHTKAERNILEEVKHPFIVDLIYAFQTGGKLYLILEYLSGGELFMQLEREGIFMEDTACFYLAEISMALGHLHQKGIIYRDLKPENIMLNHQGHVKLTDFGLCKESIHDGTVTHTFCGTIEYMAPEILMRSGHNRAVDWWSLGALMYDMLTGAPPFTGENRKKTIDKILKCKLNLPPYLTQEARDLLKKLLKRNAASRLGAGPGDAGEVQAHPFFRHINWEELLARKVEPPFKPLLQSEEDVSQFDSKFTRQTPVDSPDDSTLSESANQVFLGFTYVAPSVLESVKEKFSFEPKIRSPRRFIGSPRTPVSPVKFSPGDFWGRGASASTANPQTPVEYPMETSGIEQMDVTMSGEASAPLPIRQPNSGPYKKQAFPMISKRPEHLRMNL
Procedure: as §1
Firstly, that TSA is not a specific inhibitor of HDAC activity but that it is also a direct S6K inhibitor in the classical sense. […] In order to test the former explanation, that TSA is a direct S6K inhibitor, in vitro kinase assays were conducted using recombinant purified S6K in the presence or absence of TSA and nicotinamide (FIG. 6C).

S6 kinase = S6 kinase activation in C2C12 myoblasts by western blotting (pT412, phospho-rpS6), TSA dose course; assay type: cell-based; conditions: 18 hours, doses of 500 nM TSA and above
Procedure: In FIG. 6A (upper panel), C2C12 myoblasts were treated for 18 hours with increasing concentrations of TSA or with the structurally unrelated HDAC inhibitor, sodium butyrate. Endogenous S6 kinase activity was assessed by western blotting against pT412 and against phosho-rpS6. In another experiment, C2C12 cells were treated with 1 μM TSA or control for the times shown and S6 kinase activity was measured by in vitro kinase assay using purified ribosomes as substrate (FIG. 6B). A representative autoradiograph is shown beneath the graph.
Since phosphorylation of multiple residues in S6 kinases has a potent effect on their kinase activity, it was interesting to see whether acetylation, an alternative post-translational modification, may also modulate the S6 kinase enzyme activity. Although kinase acetylation has not been described to date, there are examples of enzymes whose activity is regulated by p300-mediated acetylation, including Fen 1 (Hasan et al. (2001) Mol. Cell. 7, 1221-1231) and DNA polymerase beta (Hasan et al. (2002) Mol. Cell. 10, 1213-1222). In order to test whether S6 kinase acetylation may affect its kinase activity in vivo, C2C12 myoblasts were treated with a dose course of TSA. S6 kinase activation was analysed by western blotting with an antibody specific for phospho-threonine 412 and also with an antibody against the phosphorylated form of rpS6. […]

Structure (SMILES)	acetylation of S6K1 at K516 (S6K1 K516 acetylation)	level of S6 kinase acetylation (S6 kinases)	S6K activity (S6K; MKOC cells (Tsc2-/- mouse renal tumour))	S6K activity (S6K; PC-3 cells (PTEN-null prostate cancer cell line))	phospho-4EBP1 phosphorylation status (4EBP1 (target of mTOR))	S6K activity in vitro (direct kinase inhibition) [1]	S6 kinase activation (phospho-threonine 412 and S6 protein phosphorylation) (S6 kinase)
COc1cccc(-c2cc(=O)c3ccccc3o2)c1N [PD98059]	not affected						
CC(/C=C/C(=O)NO)=C\[C@@H](C)C(=O)c1ccc(N(C)C)cc1 [TSA, Trichostatin A]		significantly increased	reduction of S6K activity	inhibited	unaffected	does not indicate that TSA inhibits S6K activity in vitro	potently inhibited

— patent US20090181003A1, “Regulation of S6 Kinsase Protein Activity and Related Methods” (priority 2005, published 2009)
